# Experiments:
# [1] = system: terminal pathway (TP) of complement; experiment: serum-based terminal pathway (TP) hemolytic assay (2% NHS, C5b,6, chicken erythrocytes); format: cell-based, human
# Description: Erythrocyte lysis assays were used to measure complement-mediated hemolytic activity. Erythrocyte (RBC) lysis assays as previously described^18,37 were used to measure complement activity. For alternative pathway assays and for total hemolytic activity assays, unsensitized rabbit erythrocytes were used. Chicken erythrocytes were used for the terminal pathway assays.
# Erythrocytes were washed three times in GVB with the reaction buffers as indicated, and counted using the Advia 120 Hematology System from Siemens (Siemens, Erlangen, Germany). Reactions in 300 μL were allowed to proceed for 30 min at 37° C., after which unlysed cells were pelleted by centrifugation at 600×g. Erythrocyte lysis, reflected by the released hemoglobin in the supernatant, was quantified by measuring the absorbance at 405 nm using the Mithras LB 940 microplate reader from Berthold Technologies (Bad Wildbad, Germany). Percent lysis was determined relative to the control of 100% lysis with H2O. For total hemolytic and terminal pathway (TP) assays, the concentrations of NHS and C5b,6 to initiate complement activation were established from pilot studies to obtain ˜70-80% erythrocyte lysis at 30 min.
# For serum-based terminal pathway (TP) hemolytic assays, components were diluted in GVB containing 10 mM EDTA (GVB-E), the latter added to prevent upstream complement activation and generation of endogenous C5b,6. 2% NHS was used as the source of C7, C8, and C9, and hemolysis of chicken erythrocytes (cRBC) (3.3×10^8 cells/mL) was initiated by addition of exogenous purified C5b,6, the concentration of which was determined from pilot studies to yield ˜70-80% lysis at 30 min. No C5b,6 activity was detected in the NHS prior to initiating the reaction. For some experiments, instead of NHS, purified terminal pathway complement components were used in the TP assays. In these assays, in a final volume of 300 uL GVB, lysis was achieved by the sequential addition of the following components: cRBC (3.3×10^8 cells/mL), C5b,6 (20 μM), C7 (15 nM), C8 (10 nM), and C9 (25 nM). The unlysed cell pellet was removed by centrifugation and lysis was measured immediately after the 30-minute reaction. A standard curve for the terminal pathway assay using serum as the source of complement (FIG. 2) was generated using a fixed serum concentration at 2%, and increasing concentrations of purified C5b,6 dose-dependently lysed chicken erythrocytes after 30 min at 37° C. […] of purified C5b,6 was therefore used to fix baseline lysis at ˜80% to allow assessment of the inhibitory effects of polyphosphate in serum.
# TP activity in NHS(2%), measured by lysis of cRBC, was initiated by adding a limiting amount of exogenous purified C5b,6 (250 pM) to achieve 70-80% lysis after 30 min. A molar excess of EDTA was used to prevent upstream activation of complement and generation of endogenous C5b,6. In the absence of C5b,6, there was no detectable complement-mediated cRBC lysis. P1 at concentrations ranging from 0.1 to 1000 μM, had no effect on complement-mediated hemolysis in NHS via the TP (FIG. 5A). By contrast, polyphosphate>1000 inhibited the TP in serum in a concentration-dependent manner, with an IC50 of ˜10 μM polyphosphate>1000 (dotted lines) (calculated based on monomeric phosphate).
# [2] = target: T1, C5b,6 (Homo sapiens, UniProt P01031+P13671); experiment: analytic gel filtration; format: binding; conditions: 10 mM
# T1 construct: C5 convertase that cleaves C5 into C5a and C5b; human plasma-derived C5b,6, C7, C8, and C9; purchased Complement Technology, Inc. (Tyler, Tex., USA); host or cells: human plasma
# T1 sequence (P01031 19-673 limits assumed): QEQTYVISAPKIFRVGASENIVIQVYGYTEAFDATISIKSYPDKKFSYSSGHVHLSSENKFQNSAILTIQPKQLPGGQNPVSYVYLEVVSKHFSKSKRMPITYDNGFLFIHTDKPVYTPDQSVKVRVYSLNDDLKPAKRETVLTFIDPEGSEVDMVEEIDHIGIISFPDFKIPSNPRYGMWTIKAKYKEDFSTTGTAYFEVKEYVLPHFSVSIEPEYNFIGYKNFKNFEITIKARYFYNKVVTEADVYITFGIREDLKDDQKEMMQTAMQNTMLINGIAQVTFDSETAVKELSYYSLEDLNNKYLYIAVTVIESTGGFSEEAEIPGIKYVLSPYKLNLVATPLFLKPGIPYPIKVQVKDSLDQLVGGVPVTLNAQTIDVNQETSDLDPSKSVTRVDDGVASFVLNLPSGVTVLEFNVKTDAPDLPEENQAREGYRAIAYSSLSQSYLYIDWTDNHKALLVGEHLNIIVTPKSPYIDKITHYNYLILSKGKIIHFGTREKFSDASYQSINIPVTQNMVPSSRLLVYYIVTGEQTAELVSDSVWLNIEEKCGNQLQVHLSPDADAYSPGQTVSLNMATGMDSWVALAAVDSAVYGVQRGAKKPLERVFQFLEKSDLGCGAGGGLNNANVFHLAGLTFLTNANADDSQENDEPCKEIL
# T1 sequence (P01031 752-1676 limits assumed): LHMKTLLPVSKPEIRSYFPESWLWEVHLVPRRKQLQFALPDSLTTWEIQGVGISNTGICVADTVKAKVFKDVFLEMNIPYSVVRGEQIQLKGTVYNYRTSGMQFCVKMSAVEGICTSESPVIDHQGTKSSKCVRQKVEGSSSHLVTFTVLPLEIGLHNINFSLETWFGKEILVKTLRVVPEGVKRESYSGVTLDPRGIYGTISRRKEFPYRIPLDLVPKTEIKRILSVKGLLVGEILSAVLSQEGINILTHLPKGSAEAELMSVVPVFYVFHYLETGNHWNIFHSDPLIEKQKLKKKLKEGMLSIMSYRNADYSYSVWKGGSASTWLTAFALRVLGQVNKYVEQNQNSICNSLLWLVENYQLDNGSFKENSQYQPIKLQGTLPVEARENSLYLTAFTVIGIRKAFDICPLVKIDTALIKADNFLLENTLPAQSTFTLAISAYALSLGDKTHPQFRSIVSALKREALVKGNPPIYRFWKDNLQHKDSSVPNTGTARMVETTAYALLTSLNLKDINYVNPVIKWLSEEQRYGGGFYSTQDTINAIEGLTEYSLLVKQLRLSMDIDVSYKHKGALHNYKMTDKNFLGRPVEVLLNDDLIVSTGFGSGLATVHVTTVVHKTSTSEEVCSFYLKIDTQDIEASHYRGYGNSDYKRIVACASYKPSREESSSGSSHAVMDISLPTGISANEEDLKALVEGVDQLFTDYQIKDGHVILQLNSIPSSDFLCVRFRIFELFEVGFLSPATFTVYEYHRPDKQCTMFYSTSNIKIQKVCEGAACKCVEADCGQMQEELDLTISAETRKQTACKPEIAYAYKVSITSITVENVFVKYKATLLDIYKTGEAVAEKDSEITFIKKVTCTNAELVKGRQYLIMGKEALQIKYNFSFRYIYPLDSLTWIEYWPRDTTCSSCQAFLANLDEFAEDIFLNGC
# T1 sequence (P13671 22-934): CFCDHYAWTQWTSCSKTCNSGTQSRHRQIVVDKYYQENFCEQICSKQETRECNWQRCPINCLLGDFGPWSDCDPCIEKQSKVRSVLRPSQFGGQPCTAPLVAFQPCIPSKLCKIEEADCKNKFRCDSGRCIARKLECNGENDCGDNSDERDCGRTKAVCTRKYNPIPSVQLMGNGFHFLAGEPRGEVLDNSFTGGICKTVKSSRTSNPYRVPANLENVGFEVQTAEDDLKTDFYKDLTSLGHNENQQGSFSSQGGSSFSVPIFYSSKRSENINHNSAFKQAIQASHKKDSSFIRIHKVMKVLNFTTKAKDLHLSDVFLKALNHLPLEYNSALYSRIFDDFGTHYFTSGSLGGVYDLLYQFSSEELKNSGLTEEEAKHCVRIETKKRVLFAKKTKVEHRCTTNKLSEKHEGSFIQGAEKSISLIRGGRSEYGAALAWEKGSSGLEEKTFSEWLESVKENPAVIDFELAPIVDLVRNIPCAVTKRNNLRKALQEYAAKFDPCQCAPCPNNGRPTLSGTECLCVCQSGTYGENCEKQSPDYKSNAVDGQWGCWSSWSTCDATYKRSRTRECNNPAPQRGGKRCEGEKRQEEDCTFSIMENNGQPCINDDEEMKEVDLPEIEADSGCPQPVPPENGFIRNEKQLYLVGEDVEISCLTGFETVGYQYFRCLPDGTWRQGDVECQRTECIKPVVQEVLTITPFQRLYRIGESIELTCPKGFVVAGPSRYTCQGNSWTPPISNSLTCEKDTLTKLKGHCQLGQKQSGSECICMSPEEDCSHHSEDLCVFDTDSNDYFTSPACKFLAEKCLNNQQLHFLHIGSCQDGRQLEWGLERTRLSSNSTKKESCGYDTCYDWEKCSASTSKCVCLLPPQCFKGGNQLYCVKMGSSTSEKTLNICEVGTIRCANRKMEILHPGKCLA
# Procedure: Proteins were stored in their stock solution buffers. The C5b,6 buffer consisted of 10 mM HEPES, 120 mM NaCl, pH 7.2. The C7 buffer consisted of 10 mM Na3PO4, 145 mM NaCl, at pH 7.3 (PBS). The buffers were filtered through a 0.22 μm pore diameter Stericup and Steritop Express™ PLUS filter from Millipore (Billerica, Mass., USA).
# Proteins were thawed at 37° C. for 10 min. An excess amount of protein was removed from the stock vial and transferred to a clean 600 μL microtube. C7 was diluted to […]. The proteins were centrifuged at 20,817 g for 15 min and under a Class 2A Biosafety Cabinet, 100 μL fractions were transferred to clean microtubes. The following samples were analyzed by gel filtration:
# For all samples, 20 μg of the protein in 100 μL of their respective buffers was prepared. For samples containing polyphosphate, 8 μL of 400 mM polyP>1000 was mixed with 2 μL of 5× concentrated HBS (for C5b,6) or PBS (for C7), yielding a solution of 320 mM polyP>1000 in HBS or PBS. 3.13 μL of the polyphosphate solution was added to 100 μL of either C5b,6 or C7, for a final polyP>1000 concentration of 9.71 mM. […]
# The gel filtration apparatus, ÄKTAmicro System from G.E. Healthcare (Buckinghamshire, UK), was equilibrated with either HBS (0.22 μm filtered) for C5b,6 or PBS (0.22 μm filtered) for C7 for at least 1 hour, at 5 μL per minute. […] Protein was monitored with UV absorbance at 280 nm. […]
# [3] = system: retinal pigmented epithelial cells (ARPE-19); experiment: protection against H2O2 oxidative stress, microscopy; format: cell-based, human; conditions: 100 μM to 1000 μM, H2O2 24 hours
# Procedure: Using cultured cell lines as models of choroidal endothelial cells (CEC; RF/6A)^73 and retinal pigmented epithelial cells (ARPE-19)^74, we tested whether polyphosphate (polyP) could protect against stress-induced alterations in cell survival and deposition of terminal complement activation products (C5b-9).
# CEC (FIG. 21) or ARPE-19 (FIG. 22) cells were grown to ˜80% confluence in DMEM+10% serum, and then incubated with varying concentration of hydrogen peroxide (H2O2) for 24 hours in the presence of varying concentrations of polyP1000.
smiles,measurement,setting,value
"O=P(O)(O)O [P1, Orthophosphate]",effect on TP hemolytic activity at equivalent concentration,[1]; 100 μM (based on the monomeric form),had no effect
same,effect on complement-mediated hemolysis in NHS via the TP,"[1]; 0.1 to 1000 μM, 2% NHS, 250 pM C5b,6, cRBC",had no effect
same,effect of co-incubated P1 on suppressive properties of polyphosphate>1000,[1]; up to 2 mM P1 with 200 μM polyphosphate>1000,had no effect on the suppressive properties
same,"effect on C5b,6 elution profile in gel filtration",[2],did not affect the retention time or elution profile
same,"protective effect against H2O2 oxidative stress, ARPE-19",[3],No effect was observed
